The values that follow come from patent publication US7582663B2, “Biaromatic compounds which activate PPARγ type receptors and cosmetic/pharmaceutical compositions comprised thereof” (Galderma Research & Development, priority 2002, dated 2009).

The assay concerns the target T1, PPARγ (Homo sapiens, UniProt P37231).
T1 sequence (P37231 238-505 limits assumed): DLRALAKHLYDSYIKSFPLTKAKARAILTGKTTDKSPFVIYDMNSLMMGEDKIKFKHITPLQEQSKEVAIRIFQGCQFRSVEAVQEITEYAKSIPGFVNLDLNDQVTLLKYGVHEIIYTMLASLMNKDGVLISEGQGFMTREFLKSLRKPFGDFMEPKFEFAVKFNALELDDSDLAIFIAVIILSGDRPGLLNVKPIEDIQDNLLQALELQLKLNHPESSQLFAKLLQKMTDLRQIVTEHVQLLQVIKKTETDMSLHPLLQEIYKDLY
Kind of assay: Crossed-curve PPAR transactivation test (PPARγ). The settings on record: HeLN cells stably transfected with Gal-hPPARγ and luciferase reporter; Schild regression against reference agonist; n.a. means not active; read-out: PPARγ Kd app. Type of assay: cell-based. The method, then: The activation of receptors with an agonist (activator) in HeLN cells leads to the expression of a reporter gene, luciferase, which, in the presence of a substrate, generates light. The modulation of the receptors is measured by quantifying the luminescence produced after incubating the cells in the presence of a reference agonist. The ligands displace the agonist from its site. The measurement of the activity is performed by quantifying the light produced. This measurement makes it possible to determine the modulatory activity of the compounds according to the invention by determining the constant that is the affinity of the molecule for the receptor. Since this value can fluctuate depending on the basal activity and the expression of the receptor, it is referred to as Kd apparent (KdApp in nM).
This is 88 measurement points for 1 product and 1 receptor. The remaining 8 wells are used for repeatability controls.
Measurements are also taken for total agonist controls with the same products.
The HeLN cell lines used are stable transfectants containing the plasmids ERE-βGlob-Luc-SV-Neo (reporter gene) and PPAR (α, δ, γ) Gal-hPPAR. These cells are inoculated into 96-well plates at a rate of 10 000 cells per well in 100 μl of DMEM medium without phenol red and supplemented with 10% of defatted calf serum. The plates are then incubated at 37° C. and 7% CO2 for 16 hours.
The various dilutions of the test products and of the reference ligand are added at a rate of 5 μl per well. The plates are then incubated for 18 hours at 37° C. and 7% CO2. The culture medium is removed by turning over and 100 μl of a 1:1 PBS/luciferine mixture are added to each well. After 5 minutes, the plates are read by the luminescence detector.
In general terms: Reporter assays use an easily measured gene product as a stand-in for the process of interest.

With `CCCc1nnc(C(Cc2ccc(-c3cccc(CN(C)C(=O)c4ccc5cc(C(=O)OC)ccc5c4)c3)cc2)OCC)o1` (stereo not drawn) [Example 7, methyl 6-({4′-[2-ethoxy-2-(5-propyl[1,3,4]oxadiazol-2-yl)ethyl]biphenyl-3-ylmethyl}methylcarbamoyl)naphthalene-2-carboxylate], the Kd was determined as 250 nM. To `CCCc1nnc(C(Cc2ccc(-c3cccc(CN(C)C(=O)c4ccc5cc(OCOCCOC)ccc5c4)c3)cc2)OCC)o1` (stereo not drawn) [Example 1, N-{4′-[2-ethoxy-2-(5-propyl[1,3,4]oxadiazol-2-yl)ethyl]biphenyl-3-ylmethyl}-N-methyl-6-(2-methoxyethoxymethoxy)naphthalene-2-carboxylamide] belongs 250 nM; to `CCCc1nnc(C(Cc2ccc(-c3cccc(CN(C)C(=O)c4ccc(Oc5ccccc5)cc4)c3)cc2)OCC)o1` (stereo not drawn) [Example 2, N-{4′-[2-ethoxy-2-(5-propyl[1,3,4]oxadiazol-2-yl)ethyl]biphenyl-3-ylmethyl}-N-methyl-4-phenoxybenzamide], 1000 nM.
